Test results: US20040086901A1, “Database for analyzing gene function and method of analyzing gene function by dspa” (priority 2000, published 2004)

Tests used:
Type in all cases: cell-based, mouse
[1] = system: NIH3T3 cells overexpressing HNF3b; experiment: MTT cell viability, HNF3b overexpressing cells vs parental line; conditions: HNF3b high-expressing cells / parental cell line, 3 to 4 days
Method: (§1) With regard to the function-known genes, the genes shown in the left column of Table 2 were used. With regard to the drugs, those shown in Table 1 were dissolved in DMSO to an extent of 100-fold of the maximum concentration for the search of the drugs and used. With regard to the cells, incubated NIH3T3 or ras-NIH3T3 cells were used.
(§2) Full-length cDNA of each function-known genes was incorporated into an expression vector (pRc-CMV, etc.) and transfected into NIH3T3 cells by a common method. Transformed cells were isolated using the resistance to G-418 as an index and the expression of the transfected gene in each cell was investigated by Western blotting method to select a highly expressing line.
(§3) Cell viabilities were measured according to the following procedures.
(§4) 1) From the 2nd to the 11th rows of a 96-well plate were filled with DMEM (50 μl). The 12th row was filled with 100 μl of DMEM.
(§5) 2) The 1st row was filled with 98 μl of DMEM.
(§6) 3) Drugs (2 μl each) were added into the 1st row.
(§7) 4) Continuous double-dilution was conducted from the 1st to the 9th rows. Fifty μl were taken out from the 9th row and discarded. The plate was preserved in a CO2 incubator.
(§8) 5) Cells (each high-expressing cells and the parental cell line) were detached from the medium using a trypsin solution, suspended in 10% CS-DMEM and transferred to a test tube and cell numbers (cell/ml) were counted.
(§9) 6) The cells were diluted to a concentration of 1×10^5 cells/ml, and 50 μl of the cell suspension were added to the 1st to the 11th rows of the plate followed by gently stirring.
(§10) 7) The plate was transferred to the CO2 incubator and incubated for 3 to 4 days.
(§11) 8) MTT (5 mg/ml in PBS) (10 μl) was added to the 1st to the 12th rows of the plate and incubated in the CO2 incubator at 37° C. for 4 hours.
(§12) 9) A reaction stop solution (0.04N HCl in isopropanol) (150 μl) was added followed by mixing well and being allowed to stand at room temperature for about 2 hours.
(§13) 10) Coloration of formazan which was a metabolite of the MTT dye was measured using a microplate reader. The measurement wavelength was 574 nm and the reference wavelength was 655 nm. The 10th and the 11th rows of the plate were 100% controls and the 12th row was a 0% control.
(§14) As an index for the sensitivity of highly gene-expressing cells and the parental cell line to various drugs, each of the IC40 values thereof was specified and ratios of the IC40 values were calculated. […] After that, logarithmic values of ratios of IC40 values were calculated from each gene.

[2] = system: NIH3T3 cells overexpressing PKCepsilon-KN; experiment: MTT cell viability, PKCepsilon-KN overexpressing cells vs parental line; conditions: 3 to 4 days
Method: as §1, §2, §3, §4, §5, §6, §7, §8, §9, §10, §11, §12, §13, §14

[3] = system: NIH3T3 cells overexpressing PKCalpha-KN; experiment: MTT cell viability, PKCalpha-KN overexpressing cells vs parental line; conditions: 3 to 4 days
Method: as §1, §2, §3, §4, §5, §6, §7, §8, §9, §10, §11, §12, §13, §14

[4] = system: NIH3T3 cells overexpressing HSP4O; experiment: MTT cell viability, HSP4O overexpressing cells vs parental line; conditions: HSP4O high-expressing cells / parental cell line, 3 to 4 days
Method: as §1, §2, §3, §4, §5, §6, §7, §8, §9, §10, §11, §12, §13
(§15) As an index for the sensitivity of highly gene-expressing cells and the parental cell line to various drugs, each of the IC40 values thereof was specified and ratios of the IC40 values were calculated. FIG. 2 and FIG. 3 are the examples where ratios of IC40 values were calculated from a curve showing the dependency on the concentration of the chemical versus the viability. After that, logarithmic values of ratios of IC40 values were calculated from each gene.

[5] = system: NIH3T3 cells overexpressing HSP9O; experiment: MTT cell viability, HSP9O overexpressing cells vs parental line; conditions: HSP9O high-expressing cells / parental cell line, 3 to 4 days
Method: as §1, §2, §3, §4, §5, §6, §7, §8, §9, §10, §11, §12, §13, §15

[6] = system: NIH3T3 cells overexpressing p16/INK4A; experiment: MTT cell viability, p16/INK4A overexpressing cells vs parental line; conditions: p16/INK4A high-expressing cells / parental cell line, 3 to 4 days
Method: as §1, §2, §3, §4, §5, §6, §7, §8, §9, §10, §11, §12, §13, §15

[7] = system: NIH3T3 cells overexpressing cystatin alpha; experiment: MTT cell viability, cystatin alpha overexpressing cells vs parental line; conditions: cystatin alpha high-expressing cells / parental cell line, 3 to 4 days
Method: as §1, §2, §3, §4, §5, §6, §7, §8, §9, §10, §11, §12, §13, §15

[8] = system: NIH3T3 cells overexpressing T.Tn; experiment: MTT cell viability, T.Tn overexpressing cells vs parental line; conditions: T.Tn high-expressing cells / parental cell line, 3 to 4 days
Method: as §1, §2, §3, §4, §5, §6, §7, §8, §9, §10, §11, §12, §13, §14

[9] = system: NIH3T3 cells overexpressing Ha-ras; experiment: MTT cell viability, drug sensitivity of Ha-ras overexpressing cells vs parental line; conditions: Ha-ras high-expressing cells / parental cell line, 3 to 4 days
Method: as §1, §2, §3, §4, §5, §6, §7, §8, §9, §10, §11, §12, §13, §14

[10] = system: NIH3T3 cells overexpressing N-ras; experiment: MTT cell viability, N-ras overexpressing cells vs parental line; conditions: N-ras high-expressing cells / parental cell line, 3 to 4 days
Method: as §1, §2, §3, §4, §5, §6, §7, §8, §9, §10, §11, §12, §13, §15

[11] = system: NIH3T3 cells overexpressing ERK-DN; experiment: MTT cell viability, ERK-DN overexpressing cells vs parental line; conditions: ERK-DN high-expressing cells / parental cell line, 3 to 4 days
Method: as §1, §2, §3, §4, §5, §6, §7, §8, §9, §10, §11, §12, §13, §14

[12] = system: NIH3T3 cells overexpressing RhoA; experiment: MTT cell viability, RhoA overexpressing cells vs parental line; conditions: RhoA high-expressing cells / parental cell line, 3 to 4 days
Method: as §1, §2, §3, §4, §5, §6, §7, §8, §9, §10, §11, §12, §13, §15

[13] = system: NIH3T3 cells overexpressing JNK-DN; experiment: MTT cell viability, JNK-DN overexpressing cells vs parental line; conditions: JNK-DN high-expressing cells / parental cell line, 3 to 4 days
Method: as §1, §2, §3, §4, §5, §6, §7, §8, §9, §10, §11, §12, §13, §15

[14] = system: NIH3T3 cells overexpressing m-calpain; experiment: MTT cell viability, m-calpain overexpressing cells vs parental line; conditions: m-calpain high-expressing cells / parental cell line, 3 to 4 days
Method: as §1, §2, §3, §4, §5, §6, §7, §8, §9, §10, §11, §12, §13, §14

[15] = system: NIH3T3 cells overexpressing DAN; experiment: MTT cell viability, DAN overexpressing cells vs parental line; conditions: DAN high-expressing cells / parental cell line, 3 to 4 days
Method: as §1, §2, §3, §4, §5, §6, §7, §8, §9, §10, §11, §12, §13, §15

[16] = system: NIH3T3 cells overexpressing caspase-3; experiment: MTT cell viability, caspase-3 overexpressing cells vs parental line; conditions: caspase-3 high-expressing cells / parental cell line, 3 to 4 days
Method: as §1, §2, §3, §4, §5, §6, §7, §8, §9, §10, §11, §12, §13, §14

[17] = system: NIH3T3 cells, TPA (PKC downreg); experiment: MTT cell viability, TPA (PKC downreg) cells vs parental line; conditions: 3 to 4 days
Method: as §1, §2, §3, §4, §5, §6, §7, §8, §9, §10, §11, §12, §13, §15

[18] = system: NIH3T3 cells overexpressing PDGF-R-Del; experiment: MTT cell viability, PDGF-R-Del overexpressing cells vs parental line; conditions: PDGF-R-Del high-expressing cells / parental cell line, 3 to 4 days
Method: as §1, §2, §3, §4, §5, §6, §7, §8, §9, §10, §11, §12, §13, §15

[19] = system: NIH3T3 cells overexpressing cAMP-PK-CS; experiment: MTT cell viability, cAMP-PK-CS overexpressing cells vs parental line; conditions: cAMP-PK-CS high-expressing cells / parental cell line, 3 to 4 days
Method: as §1, §2, §3, §4, §5, §6, §7, §8, §9, §10, §11, §12, §13, §14

[20] = PKCepsilon-KN (first of two lines) high-expressing cells / parental cell line
[21] = PKCepsilon-KN (second of two lines) high-expressing cells / parental cell line
[22] = PKCalpha-KN (first of two lines) high-expressing cells / parental cell line
[23] = PKCalpha-KN (second of two lines) high-expressing cells / parental cell line

| Compound | logarithmic value of ratio of IC40 values [1] | logarithmic value of ratio of IC40 values [2, 20] | logarithmic value of ratio of IC40 values [2, 21] | logarithmic value of ratio of IC40 values [3, 22] | logarithmic value of ratio of IC40 values [3, 23] | logarithmic value of ratio of IC40 values [4] | logarithmic value of ratio of IC40 values [5] | logarithmic value of ratio of IC40 values [6] | logarithmic value of ratio of IC40 values [7] | logarithmic value of ratio of IC40 values [8] | logarithmic value of ratio of IC40 values [9] | logarithmic value of ratio of IC40 values [10] | logarithmic value of ratio of IC40 values [11] | logarithmic value of ratio of IC40 values [12] | logarithmic value of ratio of IC40 values [13] | logarithmic value of ratio of IC40 values [14] | logarithmic value of ratio of IC40 values [15] | logarithmic value of ratio of IC40 values [16] | logarithmic value of ratio of IC40 values [17] | logarithmic value of ratio of IC40 values [18] | other results |
| --- | --- | --- | --- | --- | --- | --- | --- | --- | --- | --- | --- | --- | --- | --- | --- | --- | --- | --- | --- | --- | --- |
| O=c1c(-c2ccc(O)cc2)coc2cc(O)cc(O)c12 [Genistein, genistein] | −0.21 | 0.00 | 0.19 | 0.16 | 0.24 | 0.00 | 0.41 | 0.40 | 0.28 | −0.25 | −0.35 | 0.42 | 0.00 | 0.31 | −0.10 | 0.18 | 0.20 | 0.04 | −0.09 | 0.33 | logarithmic value of ratio of IC40 values [19]: 0.00 |
| CO[C@H]1[C@@H](OC)C[C@H](C)[C@@H](OC)C2=CC(=O)C=C(NC(=O)/C(C)=C/C=C\[C@H](OC)[C@@H](OC(N)=O)/C(C)=C/[C@@H]1C)C2=O [HMA, herbimycin A] | −0.18 | −0.11 | 0.09 | 0.09 | −0.10 | 0.00 | 0.40 | 0.41 | −0.12 | 0.00 | −0.35 | 0.43 | 0.00 | 0.13 | −0.14 | 0.00 | −0.05 | 0.08 | −0.07 | 0.00 | logarithmic value of ratio of IC40 values [19]: 0.12 |
| COC(=O)[C@@]1(O)C[C@H]2O[C@]1(C)n1c3ccccc3c3c4c(c5c6ccccc6n2c5c31)C(=O)NC4 [K252a] | −0.21 | 0.00 | −0.09 | 0.16 | 0.02 | 0.07 | 0.56 | −0.22 | −0.10 | 0.00 | 0.65 | −0.16 | 0.05 | 0.10 | −0.28 | 0.13 | −0.46 | 0.15 | −0.13 | 0.10 | logarithmic value of ratio of IC40 values [19]: −0.04 |
| CCCC[C@@H](C)/C=C(C)/C=C(\C)C(=O)NC1=C[C@@](O)(/C=C/C=C/C=C/C(=O)NC2=C(O)CCC2=O)[C@@H]2O[C@@H]2C1=O [Manumycin, manumycin] | −0.06 | −0.11 | 0.16 | 0.00 | 0.16 | −0.06 | −0.13 | 0.08 | −0.19 | 0.28 | −0.30 | −0.09 | −0.05 | −0.04 | −0.05 | 0.05 | 0.00 | 0.04 | 0.03 | 0.09 | logarithmic value of ratio of IC40 values [19]: 0.08 |
| O=[As]O [NaAsO2, sodium arsenite] | 0.00 | −0.07 | 0.35 | 0.16 | 0.22 | −0.02 | 0.10 | 0.16 | −0.05 | −0.05 | 0.04 | −0.19 | 0.16 | 0.07 | −0.07 | −0.16 | −0.15 | 0.11 | −0.20 | 0.00 | logarithmic value of ratio of IC40 values [19]: 0.07 |
